Assay results: article PMC3203342 (Nature, 2011)

Legend:
[1] = biological target: T1, Or85a/Orco in ab2B OSN (Drosophila melanogaster, UniProt Q9VHS4); experiment: single sensillum recording, dose-response; format: cell-based; conditions: native ab2B neuron; vapour; agonist
T1 sequence (Q9VHS4 1-397): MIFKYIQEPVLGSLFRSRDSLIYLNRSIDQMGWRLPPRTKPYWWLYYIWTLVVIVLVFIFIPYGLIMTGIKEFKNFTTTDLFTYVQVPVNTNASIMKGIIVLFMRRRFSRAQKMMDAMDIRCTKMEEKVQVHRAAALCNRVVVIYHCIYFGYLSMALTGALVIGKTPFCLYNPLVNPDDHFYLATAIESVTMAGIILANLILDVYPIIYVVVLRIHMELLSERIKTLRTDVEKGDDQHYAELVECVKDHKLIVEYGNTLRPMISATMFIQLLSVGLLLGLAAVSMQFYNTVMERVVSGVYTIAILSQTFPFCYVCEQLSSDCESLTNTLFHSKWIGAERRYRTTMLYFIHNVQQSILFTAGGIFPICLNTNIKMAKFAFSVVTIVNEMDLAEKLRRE
T1 sequence (Q9VNB5 1-486 partner): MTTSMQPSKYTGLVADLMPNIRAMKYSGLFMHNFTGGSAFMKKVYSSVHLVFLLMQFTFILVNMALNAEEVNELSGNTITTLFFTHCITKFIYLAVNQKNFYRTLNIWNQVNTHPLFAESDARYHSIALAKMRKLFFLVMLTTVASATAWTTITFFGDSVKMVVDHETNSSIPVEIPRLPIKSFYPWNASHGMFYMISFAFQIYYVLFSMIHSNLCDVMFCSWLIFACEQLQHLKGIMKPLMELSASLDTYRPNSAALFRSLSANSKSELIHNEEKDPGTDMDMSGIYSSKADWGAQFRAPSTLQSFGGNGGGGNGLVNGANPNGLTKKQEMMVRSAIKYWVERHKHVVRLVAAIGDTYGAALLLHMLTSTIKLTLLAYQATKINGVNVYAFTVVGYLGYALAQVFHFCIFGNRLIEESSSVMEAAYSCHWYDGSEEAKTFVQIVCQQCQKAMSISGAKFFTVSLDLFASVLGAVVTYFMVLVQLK

[2] = biological target: T2, Or59b/Orco in ab2A OSN (Drosophila melanogaster, UniProt Q9W1P8); experiment: single sensillum recording, dose-response; format: cell-based; conditions: native ab2A neuron; vapour; inhibitor of spontaneous activity
T2 sequence (Q9W1P8 1-398): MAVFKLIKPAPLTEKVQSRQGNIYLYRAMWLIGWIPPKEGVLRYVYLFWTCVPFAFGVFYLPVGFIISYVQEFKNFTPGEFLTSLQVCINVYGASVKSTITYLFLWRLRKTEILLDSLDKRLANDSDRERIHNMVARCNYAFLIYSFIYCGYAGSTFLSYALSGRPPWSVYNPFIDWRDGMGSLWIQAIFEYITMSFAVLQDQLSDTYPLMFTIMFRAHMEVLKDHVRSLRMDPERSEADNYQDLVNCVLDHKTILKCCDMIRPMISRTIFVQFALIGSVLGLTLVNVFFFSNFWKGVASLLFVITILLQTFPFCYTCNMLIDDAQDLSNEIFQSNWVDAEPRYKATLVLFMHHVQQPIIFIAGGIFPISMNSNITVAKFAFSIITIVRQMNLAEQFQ
T2 sequence (Q9VNB5 1-486 partner): T1 sequence (Q9VNB5 1-486 partner)

In the case of `C=CC(O)CCCCC` (stereo not drawn) [1-octen-3-ol], the Δ spikes/s [1] is reported as “activating the ab2B neuron expressing Or85a/Orco (Fig. 1e)”.

`CCCCCCCCO` [1-octanol] was tested, and the Δ spikes/s [2] was “DEET interfered with inhibition of Or59b/Orco by 1-octen-3-ol, 1-octanol, and linalool”.

`C=C[C@](C)(O)CCC=C(C)C` [linalool] was tested, and the Δ spikes/s [2] was “DEET interfered with inhibition of Or59b/Orco by 1-octen-3-ol, 1-octanol, and linalool”.
